Assay [1] concerns epidermal keratinocytes. Put plainly: Monitoring of culture conditions by automatic cell tracking of epidermal keratinocyte colonies. The assay is classed as cell-based, human. As to conditions: 10 ng/ml EGF added to the medium. On the procedure:
Human epidermal keratinocytes originating in neonate (purchased from KURABO) were cultured under the conditions of 37° C. and 10% CO2 using the mouse 3T3 fibroblasts treated with mitomycin C as feeder cells (refer to the reference for details of the method).
The cultured epidermal keratinocytes were subcultured on a 35-mm glass bottom dish, and time-lapse imaging was performed under the conditions of 37° C. and 10% CO2 in which imaging was automatically performed every 5 minutes with Olympus FV10i.
The automatic tracking system was applied to monitoring of culture conditions of epidermal keratinocytes (obtained and cultured in the same manner as that of Example 1-1).
Behaviors of epidermal keratinocytes under different culture conditions were compared in the same manner as that of Example 1-2. The cell locomotions were compared. Those of the case where the medium was exchanged on the day 4 of the culture (feeding) and the case where the medium was not exchanged (no feeding) were compared. […] In the lower diagrams of FIG. 14, positions of the nuclei at each time point are shown with lines.
In the culture system of the inventors of the present invention, epidermal keratinocytes show a spiral migration pattern in colonies. As clearly seen from FIG. 15, the trajectory lines in 2D images (upper side) and 3D images (lower side) twisted. […]

Assay [2] relates to epidermal keratinocytes. As to conditions: as previously reported [7]; cited from earlier work.

On to “epidermal growth factor [EGF, epidermal growth factor (EGF) (Up state, #01-107) added to the culture medium]”, for which the migration speed result in assay [1] is given as “did not change”. The migration pattern entry in assay [1] (without EGF, spiral migration pattern in colonies) is “changed”. Also, the “migration of epidermal keratinocytes” value in assay [2] is given as “induces migration of epidermal keratinocytes to the outside”.

Values taken from US11475578B2, “Method for analyzing behavior of cell, and use thereof” (TEIKYO UNIVERSITY, priority 2018, dated 2022).
